Reference: patent US10487349B2, “Use of a fluidic device” (GRADIENTECH AB, priority 2013, dated 2019)

Legend:
[1] = system: E. coli K12 MG1655; experiment: Microfluidic 3D culture matrix concentration-gradient antibiotic susceptibility test (CELLDIRECTOR Ruby); type: cell-based, Escherichia coli; conditions: E. coli K12 MG1655 in agarose 3D culture matrix; gradient ampicillin 20-0 μg/ml or spectinomycin 50-0 μg/ml
Protocol: Bacterium strain E. coli K12 MG1655 was cultured on a Luria broth (LB) plate. The E. coli cells were diluted by phosphate buffered saline (PBS) to OD600=0.1 as measured by a MULTISKAN® FC Microplate Photometer (Thermo Scientific). Same volumes of PBS with OD600=0.1 cells and low-melting temperature agarose were mixed together. A pipette with white tips was used to suck up 8 μl of the mixture and inject the mixture into the culture chamber of a microfluidic device CELLDIRECTOR® Ruby (Gradientech AB), see upper panel in FIG. 20. The fluid channel inputs of the microfluidic device were connected to fluid reservoirs comprising Muelle-Hinton medium and where one of the reservoirs also contained 20 μg/ml ampicillin. The speed of a pusher used to draw the medium into the fluid channels was set to 5 μl/min for 30 minutes and then to 2 μl/min for the rest of the time. […]
The pictures were cut to match a selected central portion of the culture chamber, see black box in FIGS. 17A and 18A. Image processing software was used to extract detected light intensity data from the pictures. A spatial growth situation distribution diagram was used to summarize the grey-scale values, i.e. detected light intensity values, of all the lines that are perpendicular to the direction of the gradient as the Y-axis with the concentration gradient as the X-axis. […]

[2] = in agarose matrix; cited from earlier work

Row | SMILES | resistance of the microorganism to the test substance, from width of the border zone [1] | diffusion constant D [2]
1 | CC1(C)S[C@@H]2[C@H](NC(=O)[C@H](N)c3ccccc3)C(=O)N2[C@H]1C(=O)O [ampicillin] | no corresponding ampicillin resistance was detected | 0.016 cm^2/h
2 | CN[C@@H]1[C@H](O)[C@H](NC)[C@H]2O[C@@]3(O)C(=O)C[C@@H](C)O[C@H]3O[C@@H]2[C@H]1O [spectinomycin] | presence of spectinomycin resistance | 
